Data published in patent publication US20220289766A1 (INFLAZOME LIMITED, priority 2019, published 2022).
Where a name gives a salt, the structure may show the parent alone.

Legend:
NLRP3 [1] = molecular target: T1, NLRP3 (Homo sapiens, UniProt Q96P20); test: Human whole blood IL-1β release assay; format: cell-based; parameters: Plate out 80 μl of whole blood containing 1 μg/ml of LPS in 96-well, clear bottom cell culture plate; from tissue; host or cells: human whole blood from healthy donors; conditions: LPS 1 μg/ml, compound 3 hrs, nigericin 10 μM 1 hr, IL-1β by AlphaLisa, read-out: HWB IC50
T1 sequence (Q96P20 whole entry): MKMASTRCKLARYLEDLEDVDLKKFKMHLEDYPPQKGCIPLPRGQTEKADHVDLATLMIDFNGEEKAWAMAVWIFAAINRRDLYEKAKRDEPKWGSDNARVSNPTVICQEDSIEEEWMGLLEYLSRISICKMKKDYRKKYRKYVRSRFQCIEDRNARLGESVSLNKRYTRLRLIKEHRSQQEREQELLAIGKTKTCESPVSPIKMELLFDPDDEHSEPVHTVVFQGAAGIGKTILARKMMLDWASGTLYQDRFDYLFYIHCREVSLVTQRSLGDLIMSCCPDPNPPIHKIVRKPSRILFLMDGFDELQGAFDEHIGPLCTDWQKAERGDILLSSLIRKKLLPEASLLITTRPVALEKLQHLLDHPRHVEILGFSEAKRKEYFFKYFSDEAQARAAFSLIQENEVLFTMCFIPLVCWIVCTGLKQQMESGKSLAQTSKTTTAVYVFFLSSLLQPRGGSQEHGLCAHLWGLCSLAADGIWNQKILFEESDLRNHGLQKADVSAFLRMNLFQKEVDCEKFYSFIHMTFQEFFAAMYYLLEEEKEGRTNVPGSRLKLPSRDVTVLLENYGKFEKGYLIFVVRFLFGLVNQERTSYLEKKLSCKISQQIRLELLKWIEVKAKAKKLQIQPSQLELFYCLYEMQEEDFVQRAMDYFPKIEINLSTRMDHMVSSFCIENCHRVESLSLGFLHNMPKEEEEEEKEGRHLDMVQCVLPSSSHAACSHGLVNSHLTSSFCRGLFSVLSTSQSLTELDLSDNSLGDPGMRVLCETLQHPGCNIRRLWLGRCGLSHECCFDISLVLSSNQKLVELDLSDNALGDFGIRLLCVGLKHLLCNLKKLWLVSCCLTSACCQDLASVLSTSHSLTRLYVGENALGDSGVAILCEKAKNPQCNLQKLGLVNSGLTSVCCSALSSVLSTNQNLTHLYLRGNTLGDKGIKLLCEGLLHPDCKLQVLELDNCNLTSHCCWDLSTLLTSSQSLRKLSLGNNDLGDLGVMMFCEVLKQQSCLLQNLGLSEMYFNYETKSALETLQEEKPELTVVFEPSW
Procedure: For systemic delivery, the ability to inhibit NLRP3 when the compounds are present within the bloodstream is of great importance. For this reason, the NLRP3 inhibitory activity of a number of compounds in human whole blood was investigated in accordance with the following protocol.
Human whole blood in Li-heparin tubes was obtained from healthy donors from a volunteer donor panel. • 1. Plate out 80 μl of whole blood containing 1 μg/ml of LPS in 96-well, clear bottom cell culture plate (Corning #3585) • 2. Add 10 μl compound (8 points half-log dilution with 10 μM top dose) or vehicle (DMSO 0.1% FAC) to the appropriate wells • 3. Incubate for 3 hrs at 37° C., 5% CO2 • 4. Add 10 μl nigericin (Sigma #N7143) (10 μM FAC) to all wells • 5. Incubate for 1 hr at 37° C., 5% CO2 • 6. At the end of the incubation period, spin plates at 300×g for 5 mins to pellet cells and remove […] of supernatant and add to 96-well v-bottom plates for IL-1β analysis (note: these plates containing the supernatants can be stored at −80° C. to be analysed at a later date) • 7. IL-1β was measured according to the manufacturer protocol (Perkin Elmer-AlphaLisa IL-1 Kit AL220F-5000) • 8. IC50 data is fitted to a non-linear regression equation (log inhibitor vs response-variable slope 4-parameters)

NLRP3 [2] = molecular target: T1, NLRP3; test: THP-1 cells pyroptosis assay; format: cell-based; parameters: Seed THP-1 cells (25,000 cells/well) containing 1.0 μg/ml LPS in 40 μl of RPMI medium; host or cells: THP-1 cells; conditions: LPS 1 μg/ml, compound 3 hrs, nigericin 5 μM 1 hr, resazurin readout
Procedure: THP-1 cells (ATCC #TIB-202) were grown in RPMI containing L-glutamine (Gibco #11835) supplemented with 1 mM sodium pyruvate (Sigma #S8636) and penicillin (100 units/ml)/streptomycin (0.1 mg/ml) (Sigma #P4333) in 10% Fetal Bovine Serum (FBS) (Sigma #F0804). The cells were routinely passaged and grown to confluency (˜10^6 cells/ml). On the day of the experiment, THP-1 cells were harvested and resuspended into RPMI medium (without FBS). The cells were then counted and viability ([…]) checked by Trypan blue (Sigma #T8154). Appropriate dilutions were made to give a concentration of 625,000 cells/ml. To this diluted cell solution was added LPS (Sigma #L4524) to give a 1 μg/ml Final Assay Concentration (FAC). 40 μl of the final preparation was aliquoted into each well of a 96-well plate. The plate thus prepared was used for compound screening.
The following method step-by-step assay was followed for compound screening. • 1. Seed THP-1 cells (25,000 cells/well) containing 1.0 μg/ml LPS in 40 μl of RPMI medium (without FBS) in 96-well, black walled, clear bottom cell culture plates coated with poly-D-lysine (VWR #734-0317) • 2. Add 5 μl compound (8 points half-log dilution, with 10 μM top dose) or vehicle (DMSO 0.1% FAC) to the appropriate wells • 3. Incubate for 3 hrs at 37° C., 5% CO2 • 4. Add 5 μl nigericin (Sigma #N7143) (FAC 5 μM) to all wells • 5. Incubate for 1 hr at 37° C., 5% CO2 • 6. At the end of the incubation period, spin plates at 300×g for 3 mins and remove supernatant • 7. Then add 50 μl of resazurin (Sigma #R7017) (FAC 100 μM resazurin in RPMI medium without FBS) and incubate plates for a further 1-2 hrs at 37° C. and 5% CO2 • 8. Plates were read in an Envision reader at Ex 560 nm and Em 590 nm • 9. IC50 data is fitted to a non-linear regression equation (log inhibitor vs response-variable slope 4-parameters)

IC50 (NLRP3 [1]) [µM] | IC50 (NLRP3 [2]) [µM] | SMILES
1 to 5 | 1 to 5 | Cc1c2ccnc1OCC(C)(C)n1ccc(n1)S(=O)(=O)NC(=O)Nc1c-2ccc2c1CCC2 [Example 45, 19,19,26-trimethyl-21-oxa-14λ^6-thia-11,13,18,23,27-pentaaza-pentacyclo[20.3.1.1^15,18.0^2,10.0^5,9]-heptacosa-1(25),2,4,9,15(27),16,22(26),23-octaene-12,14,14-trione, sodium salt]
0.1 to 0.5 | ≤ 0.1 | O=C1Nc2c(ccc3c2CCC3)-c2ccnc(c2)OCCc2cccc(c2)S(=O)(=O)N1 [Example 31, 22-oxa-14λ^6-thia-11,13,24-triaza-pentacyclo-[21.3.1.1^15,19.0^2,10.0^5,9]-octacosa-1(26),2,4,9,15(28),16,18,23(27),24-nonaene-12,14,14-trione, sodium salt]
0.1 to 0.5 | ≤ 0.1 | Cc1cc2c(c3c1-c1ccnc(c1)OCC(C)(C)n1cc(F)c(n1)S(=O)(=O)NC(=O)N3)CCC2 [Example 26]
1 to 5 | 0.1 to 0.5 | CC1(C)COc2cc(c(F)cn2)-c2ccc3c(c2NC(=O)NS(=O)(=O)c2ccn1n2)CCC3 [Example 38, 25-fluoro-19,19-dimethyl-21-oxa-14λ^6-thia-11,13,18,23,27-pentaaza-pentacyclo[20.3.1.1^15,18.0^2,10.0^5,9]-heptacosa-1(25),2,4,9,15(27),16,22(26),23-octaene-12,14,14-trione, sodium salt]
1 to 5 | 0.1 to 0.5 | O=C1Nc2c(ccc3c2CCC3)-c2ccnc(c2)OCCCCCn2ccc(n2)S(=O)(=O)N1 [Example 1, 24-Oxa-14λ^6-thia-11,13,18,26,30-pentaazapentacyclo-[23.3.1.1^15,18.0^2,10.0^5,9]-triaconta-1(29),2(10),3,5(9),15(30),16,25,27-octaene-12,14,14-trione]
0.5 to 1 | ≤ 0.1 | CN(C)Cc1cc2nn1CCCCCOc1cc(ccn1)-c1ccc3c(c1NC(=O)NS2(=O)=O)CCC3 [Example 17, 17-[(dimethylamino)-methyl]-24-oxa-14λ^6-thia-11,13,18,26,30-pentaazapentacyclo-[23.3.1.1^15,18.0^2,10.0^5,9]triaconta-1(28),2,4,9,15(30),16,25(29),26-octaene-12,14,14-trione]
0.1 to 0.5 | ≤ 0.1 | O=C1Nc2c(ccc3c2CCC3)-c2ccnc(c2)OCCCOCc2cc(nn2C2CC2)S(=O)(=O)N1 [Example 15, 17-cyclopropyl-20,24-dioxa-14λ^6-thia-11,13,16,17,26-pentaazapentacyclo-[23.3.1.1^15,18.0^2,10.0^5,9]triaconta-1(28),2,4,9,15,18(30),25(29),26-octaene-12,14,14-trione]
0.5 to 1 | 0.1 to 0.5 | CN1CCOc2cc(ccn2)-c2ccc3c(c2NC(=O)NS(=O)(=O)c2ccn(n2)C(C)(C)C1)CCC3 [Example 18, 19,19,21-trimethyl-24-oxa-14λ^6-thia-11,13,18,21,26,30-hexaazapentacyclo-[23.3.1.1^15,18.0^2,10.0^5,9]triaconta-1(28),2,4,9,15(30),16,25(29),26-octaene-12,14,14-trione]
5 to 10 | 1 to 5 | O=C1Nc2c3c(cc4c2C(CCCCCCn2ccc(n2)S(=O)(=O)N1)CC4)CCC3 (racemic) [Example 48, 5λ^6-thia-2,4,9,27-tetraazapentacyclo[14.9.1.1^6,9.0^19,26.0^21,25]heptacosa-1(25),6(27),7,19(26),20-pentaene-3,5,5-trione]
≤ 0.1 | ≤ 0.1 | O=C1Nc2c(ccc3c2CCC3)-c2ccnc(c2)OCCn2cc(F)c(n2)S(=O)(=O)N1 [Example 25, 16-fluoro-21-oxa-14λ^6-thia-11,13,18,23,27-pentaazapentacyclo-[20.3.1.1^15,18.0^2,10.0^5,9]heptacosa-1(25),2,4,9,15(27),16,22(26),23-octaene-12,14,14-trione]
1 to 5 | 0.5 to 1 | CC(C)c1cc(F)cc2c1NC(=O)NS(=O)(=O)c1ccn(n1)CCCCCOc1cc-2ccn1 [Example 10, 4-fluoro-6-(propan-2-yl)-21-oxa-11λ^6-thia-8,10,15,23,27-pentaazatetracyclo-[20.3.1.1^12,15.0^2,7]heptacosa-1(25),2(7),3,5,12(27),13,22(26),23-octaene-9,11,11-trione]
0.1 to 0.5 | 0.1 to 0.5 | CC1(C)COc2cc(ccn2)-c2ccc3c(c2NC(=O)NS(=O)(=O)c2ccn1n2)CCC3 [Example 11, 19,19-dimethyl-21-oxa-14λ^6-thia-11,13,18,23,27-pentaaza-pentacyclo[20.3.1.1^15,18.0^2,10.0^5,9]-heptacosa-1(25),2,4,9,15(27),16,22(26),23-octaene-12,14,14-trione]
0.1 to 0.5 | ≤ 0.1 | Cc1cc2c(c3c1-c1ccnc(c1)OCCn1cc(F)c(n1)S(=O)(=O)NC(=O)N3)CCC2 [Example 29, 16-fluoro-3-methyl-21-oxa-14λ^6-thia-11,13,18,23,27-pentaaza-pentacyclo[20.3.1.1^15,18.0^2,10.0^5,9]-heptacosa-1(25),2(10),3,5(9),15(27),16,22(26),23-octaene-12,14,14-trione, sodium salt]
1 to 5 | 0.1 to 0.5 | O=C1Nc2c(ccc3c2CCC3)-c2ccnc(c2)OCCCCCCn2ccc(n2)S(=O)(=O)N1 [Example 5, 25-oxa-14λ^6-thia-11,13,18,27,31-pentaazapentacyclo-[24.3.1.1^15,18.0^2,10.0^5,9]hentriaconta-1(30),2(10),3,5(9),15(31),16,26,28-octaene-12,14,14-trione]
0.1 to 0.5 | ≤ 0.1 | Cc1cc2c(c3c1-c1ccnc(c1)OCC(C)(C)n1ccc(n1)S(=O)(=O)NC(=O)N3)CCC2 [Example 24, 3,19,19-trimethyl-21-oxa-14λ^6-thia-11,13,18,23,27-pentaazapentacyclo-[20.3.1.1^15,18.0^2,10.0^5,9]heptacosa-1(25),2(10),3,5(9),15(27),16,22(26),23-octaene-12,14,14-trione, Sodium Salt]
– | 1 to 5 | O=C1Nc2c(ccc3c2CCC3)-c2ccnc(c2)OCc2cc(nn2C2CC2)S(=O)(=O)N1 [Example 16, 17-cyclopropyl-20-oxa-14λ^6-thia-11,13,16,17,22-pentaazapentacyclo-[19.3.1.1^15,18.0^2,10.0^5,9]hexacosa-1(24),2,4,9,15,18(26),21(25),22-octaene-12,14,14-trione]
– | 1 to 5 | O=C1Nc2c3c(cc4c2C(CCCCn2ccc(n2)S(=O)(=O)N1)CC4)CCC3 (racemic) [Example 49, 10λ^6-thia-6,11,13,25-tetraazapentacyclo[12.9.1.1^6,9.0^15,19.0^21,24]pentacosa-7,9(25),14,19,21(24)-pentaene-10,10,12-trione]
– | 1 to 5 | O=C1Nc2c(ccc3c2CCC3)-c2cccc(c2)OCCCn2ccc(n2)S(=O)(=O)N1 [Example 21, 22-oxa-14λ^6-thia-11,13,18,28-tetraazapentacyclo-[21.3.1.1^15,18.0^2,10.0^5,9]-octacosa-1(26),2,4,9,15(28),16,23(27),24-octaene-12,14,14-trione]
